These results are taken from patent US12077523B2, “N-(isopropyl-triazolyl)pyridinyl)-heteroaryl-carboxamide derivatives and use thereof” (HK INNO.N CORPORATION, priority 2018, dated 2024).

The assay deals with T1, ASK-1 enzyme (Homo sapiens, UniProt Q99683).
T1 construct: purchased Signal Chem M13-11G-10
T1 sequence (Q99683 649-946 limits assumed): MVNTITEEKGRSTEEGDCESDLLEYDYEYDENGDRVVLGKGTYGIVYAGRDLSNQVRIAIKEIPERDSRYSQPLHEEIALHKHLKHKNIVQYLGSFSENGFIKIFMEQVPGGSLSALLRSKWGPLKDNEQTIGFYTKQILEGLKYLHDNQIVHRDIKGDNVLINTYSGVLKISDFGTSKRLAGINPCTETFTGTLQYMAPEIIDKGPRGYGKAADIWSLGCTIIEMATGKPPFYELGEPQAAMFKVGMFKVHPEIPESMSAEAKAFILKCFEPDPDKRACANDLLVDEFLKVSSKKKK
As to the kind of experiment: Inhibitory ability against ASK-1 enzyme activity (ADP-Glo Kinase Assay). The following applies: 250 μM ATP, MBP substrate, 15 ng ASK-1 enzyme, 30° C. 40 minutes. The assay is classed as biochemical. As for the experimental part: Experimental Example 1: Assay of Inhibitory Ability Against ASK-1 Enzyme Activity (ADP-Glo™ Kinase Assay)
In order to evaluate the inhibitory ability of the compounds of Examples 1 to 24 against ASK-1 enzyme activity, the following experiment was carried out using ADP-Glo™ (Promega, Cat. No. V9101). Each of the compounds was prepared into a solution at concentrations of 0.32 nM, 1.6 nM, 8 nM, 40 nM, 200 nM, 1,000 nM by adding a kinase buffer solution (40 mM Tris, 20 mM MgCl2, 0.1 mg/mL bovine serum albumin in H2O). Subsequently, 250 μM of ATP (Promega, Cat. No. V915A) and 0.5 μg/μL of MBP substrate (Signal Chem, Cat. No. 42-51N) were added thereto, and the mixture was reacted at 30° C. for 40 minutes in the presence of 15 ng of ASK-1 enzyme (Signal Chem, Cat. No. M13-11G-10). Then, the ADP-Glo™ reagent and a kinase detection reagent were sequentially added thereto and reacted for 40 minutes and 10 minutes, respectively. After completion of the reaction, luminescence was measured using a Synergy™ NEO microplate reader (BioTEK, NEOB-1311189).
The inhibitory ability of the compounds of Examples 1 to 24 against ASK-1 enzyme activity was verified by analyzing data from the measured RLU values. Specifically, the inhibitory ability against ASK-1 enzyme activity was assessed by deriving the residual activity percentage of the ASK-1 enzyme in the samples treated with the compounds at the concentration to be tested, while using the RLU value of the sample not treated with the compounds as a 100% control.
For `Cc1c[nH]c(C(=O)Nc2cccc(-c3nncn3C(C)C)n2)c1` [Example 1, N-(6-(4-isopropyl-4H-1,2,4-triazol-3-yl)pyridin-2-yl)-4-methyl-1H-pyrrole-2-carboxamide], the IC50 stood at 9.9 nM. As for `Cc1cccc(-c2c[nH]c(C(=O)Nc3cccc(-c4nncn4C(C)C)n3)c2)c1` [Example 2, N-(6-(4-isopropyl-4H-1,2,4-triazol-3-yl)pyridin-2-yl)-4-m-tolyl-1H-pyrrole-2-carboxamide], the IC50 is 4 nM. With `COCc1c[nH]c(C(=O)Nc2cccc(-c3nncn3C(C)C)n2)c1` [Example 3, N-(6-(4-isopropyl-4H-1,2,4-triazol-3-yl)pyridin-2-yl)-4-(methoxymethyl)-1H-pyrrole-2-carboxamide], the IC50 was 7.7 nM.

Take `CCc1c[nH]c(C(=O)Nc2cccc(-c3nncn3C(C)C)n2)c1` [Example 4, 4-ethyl-N-(6-(4-isopropyl-4H-1,2,4-triazol-3-yl)pyridin-2-yl)-1H-pyrrole-2-carboxamide]: the IC50 came out at 8.3 nM. Consider `Cc1ccc(-c2c[nH]c(C(=O)Nc3cccc(-c4nncn4C(C)C)n3)c2)cc1` [Example 5, N-(6-(4-isopropyl-4H-1,2,4-triazol-3-yl)pyridin-2-yl)-4-p-tolyl-1H-pyrrole-2-carboxamide], for which the IC50 was 6 nM. In the case of `CC(C)n1cnnc1-c1cccc(NC(=O)c2cc(-c3ccccc3)c[nH]2)n1` [Example 6, N-(6-(4-isopropyl-4H-1,2,4-triazol-3-yl)pyridin-2-yl)-4-phenyl-1H-pyrrole-2-carboxamide], the IC50 turned out to be 6.5 nM. The same measure for `CC(C)n1cnnc1-c1cccc(NC(=O)c2ccc[nH]2)n1` [Example 7, N-(6-(4-isopropyl-4H-1,2,4-triazol-3-yl)pyridin-2-yl)-1H-pyrrole-2-carboxamide]: 11.6 nM; for `Cc1ccc(C(=O)Nc2cccc(-c3nncn3C(C)C)n2)[nH]1` [Example 8, N-(6-(4-isopropyl-4H-1,2,4-triazol-3-yl)pyridin-2-yl)-5-methyl-1H-pyrrole-2-carboxamide]: 34.4 nM; for `CC(C)n1cnnc1-c1cccc(NC(=O)c2ccc(-c3ccccc3)[nH]2)n1` [Example 9, N-(6-(4-isopropyl-4H-1,2,4-triazol-3-yl)pyridin-2-yl)-5-phenyl-1H-pyrrole-2-carboxamide]: 5.8 nM. As to `Cc1ccc(-c2ccc(C(=O)Nc3cccc(-c4nncn4C(C)C)n3)[nH]2)cc1` [Example 10, N-(6-(4-isopropyl-4H-1,2,4-triazol-3-yl)pyridin-2-yl)-5-p-tolyl-1H-pyrrole-2-carboxamide], the IC50 came out at 10.2 nM. The same measure for `CCc1ccc(C(=O)Nc2cccc(-c3nncn3C(C)C)n2)[nH]1` [Example 11, 5-ethyl-N-(6-(4-isopropyl-4H-1,2,4-triazol-3-yl)pyridin-2-yl)-1H-pyrrole-2-carboxamide]: 49.7 nM; for `Cc1ncc(-c2ccc(C(=O)Nc3cccc(-c4nncn4C(C)C)n3)[nH]2)cn1` [Example 12, N-(6-(4-isopropyl-4H-1,2,4-triazol-3-yl)pyridin-2-yl)-5-(2-methylpyrimidine-5-yl)-1H-pyrrole-2-carboxamide]: 9.9 nM; for `CC(C)n1cnnc1-c1cccc(NC(=O)c2ccc(-c3ccc(S(C)(=O)=O)cc3)[nH]2)n1` [Example 13, N-(6-(4-isopropyl-4H-1,2,4-triazol-3-yl)pyridin-2-yl)-5-(4-(methylsulfonyl)phenyl)-1H-pyrrole-2-carboxamide]: 4.4 nM. As to `Cc1cccc(-c2ccc(C(=O)Nc3cccc(-c4nncn4C(C)C)n3)[nH]2)c1` [Example 14, N-(6-(4-isopropyl-4H-1,2,4-triazol-3-yl)pyridin-2-yl)-5-m-tolyl-1H-pyrrole-2-carboxamide], the IC50 was found to be 5.8 nM. As for `Cc1cc(C)cc(-c2ccc(C(=O)Nc3cccc(-c4nncn4C(C)C)n3)[nH]2)c1` [Example 15, 5-(3,5-dimethylphenyl)-N-(6-(4-isopropyl-4H-1,2,4-triazol-3-yl)pyridin-2-yl)-1H-pyrrole-2-carboxamide], the IC50 was determined as 8.5 nM. Regarding `CC(C)n1cnnc1-c1cccc(NC(=O)c2ccc(-c3ccc(Cl)cc3)[nH]2)n1` [Example 16, 5-(4-chlorophenyl)-N-(6-(4-isopropyl-4H-1,2,4-triazol-3-yl)pyridin-2-yl)-1H-pyrrole-2-carboxamide], the IC50 was determined as 5.4 nM.

On to `CC(C)n1cnnc1-c1cccc(NC(=O)c2ccc(-c3cccs3)[nH]2)n1` [Example 17, N-(6-(4-isopropyl-4H-1,2,4-triazol-3-yl)pyridin-2-yl)-5-(thiophene-2-yl)-1H-pyrrole-2-carboxamide], for which the IC50 came to 7.9 nM. For the compound `Cc1ccc(-c2ccc(C(=O)Nc3cccc(-c4nncn4C(C)C)n3)[nH]2)cc1C` [Example 18, 5-(3,4-dimethylphenyl)-N-(6-(4-isopropyl-4H-1,2,4-triazol-3-yl)pyridin-2-yl)-1H-pyrrole-2-carboxamide], the IC50 worked out at 4.8 nM.

With `Cc1ccc(-c2ccc(C(=O)Nc3cccc(-c4nncn4C(C)C)n3)[nH]2)cc1F` [Example 19, 5-(3-fluoro-4-methylphenyl)-N-(6-(4-isopropyl-4H-1,2,4-triazol-3-yl)pyridin-2-yl)-1H-pyrrole-2-carboxamide], the IC50 came out at 5.2 nM.

Turning to `CC(C)n1cnnc1-c1cccc(NC(=O)c2ccc(-c3ccc(F)c(Cl)c3)[nH]2)n1` [Example 20, 5-(3-chloro-4-fluorophenyl)-N-(6-(4-isopropyl-4H-1,2,4-triazol-3-yl)pyridin-2-yl)-1H-pyrrole-2-carboxamide], the IC50 is 5.3 nM.

In the case of `CSc1ccc(-c2ccc(C(=O)Nc3cccc(-c4nncn4C(C)C)n3)[nH]2)cc1` [Example 21, N-(6-(4-isopropyl-4H-1,2,4-triazol-3-yl)pyridin-2-yl)-5-(4-(methylthio)phenyl)-1H-pyrrole-2-carboxamide], the IC50 turned out to be 3.1 nM. The same measure for `Cc1ccccc1-c1ccc(C(=O)Nc2cccc(-c3nncn3C(C)C)n2)[nH]1` [Example 22, N-(6-(4-isopropyl-4H-1,2,4-triazol-3-yl)pyridin-2-yl)-5-o-tolyl-1H-pyrrole-2-carboxamide]: 5.1 nM; for `CC(C)n1cnnc1-c1cccc(NC(=O)c2ccc(-c3ccc(F)cc3)[nH]2)n1` [Example 23, 5-(4-fluorophenyl)-N-(6-(4-isopropyl-4H-1,2,4-triazol-3-yl)pyridin-2-yl)-1H-pyrrole-2-carboxamide]: 5.9 nM. The same measure for `CCOc1ccc(-c2ccc(C(=O)Nc3cccc(-c4nncn4C(C)C)n3)[nH]2)cc1` [Example 24, 5-(4-ethoxyphenyl)-N-(6-(4-isopropyl-4H-1,2,4-triazol-3-yl)pyridin-2-yl)-1H-pyrrole-2-carboxamide]: 7.5 nM.

One may read the IC50 as the concentration needed to halve the response being measured.
